Read-outs that look alike come from different tables or passages of the source. Each block holds one compound with its values, some of them ahead of it.
Legend:
Type in all cases: cell-based
MCF-7 = test: MTT cell viability assay, MCF-7; conditions: Homo sapiens, read-out: IC50/μM MCF-7
Procedure: (§1) Cells were then treated with compound at various concentrations in 0.2 mL media. After the 72-hour incubation period, cells were washed in PBS (3×100 μL), and 10 μL MTT reagent was added with 100 μL fresh media. Cells were then incubated for 4 hr in a humidified chamber at 37° C. with 5% CO2. Insoluble formazan crystals were solubilized by addition of 0.1 mL detergent solution (4 hr at room temp., dark). Resulting colored solutions were then quantified at an absorbance of 570 nm.

MDA-MB-231 = test: MTT cell viability assay, MDA-MB-231; conditions: Homo sapiens
Procedure: as §1

MEF (C57BL/6) = test: MTT cell viability assay, MEF (C57BL/6); conditions: Mus musculus
Procedure: as §1

[1] = MTT, 72-hour incubation, read-out: IC50/μM MEF (C57BL/6)
[2] = MCF7, 72 h, MTT, 72-hour incubation
[3] = MDA-MB-231, 72 h, 72-hour incubation
[4] = 72 h, read-out: IC50/μM MEF (C57BL/6), MTT, 72-hour incubation

Structure (SMILES): CCn1c(=O)/c(=C2\Sc3ccc(C)cc3N2C)s/c1=C\c1scc[n+]1Cc1c(Cl)cccc1Cl [JG-361]
IC50 (MCF-7; [2]): 0.088 ± 0.008 µM | IC50 (MDA-MB-231; [3]): 0.054 ± 0.006 µM | IC50 (MEF (C57BL/6); [4]): 0.55 ± 0.03 µM

Structure (SMILES): CCn1c(=O)/c(=C2\Sc3cc(F)ccc3N2C)s/c1=C\c1scc[n+]1[C@@H](C)c1ccccc1 [JG-336]
IC50 (MCF-7; MCF7, MTT, 72-hour incubation): 0.18 ± 0.02 µM | IC50 (MDA-MB-231; MDA-MB-231, 72-hour incubation): 0.21 ± 0.02 µM | IC50 (MEF (C57BL/6); [1]): 2.2 ± 0.1 µM

Structure (SMILES): CCn1c(=O)/c(=C2\Sc3cc(C(C)C)ccc3N2C)s/c1=C\c1scc[n+]1C(C)c1ccccc1 (stereo not drawn) [JG-319]
IC50 (MCF-7; MCF7, MTT, 72-hour incubation): 0.13 ± 0.01 µM | IC50 (MDA-MB-231; MDA-MB-231, 72-hour incubation): 0.26 ± 0.03 µM | IC50 (MEF (C57BL/6); [1]): 1.7 ± 0.04 µM

Structure (SMILES): CCn1c(=O)/c(=C2\Sc3cc(Cl)ccc3N2C)s/c1=C\c1scc[n+]1Cc1ccccc1S(C)(=O)=O [JG-287]
IC50 (MCF-7; MCF7, MTT, 72-hour incubation): 1.73 ± 0.2 µM | IC50 (MDA-MB-231; MDA-MB-231, 72-hour incubation): 1.3 ± 0.3 µM | IC50 (MEF (C57BL/6); [1]): > 10 µM

Structure (SMILES): CCn1c(=O)/c(=C2\Sc3cc(F)ccc3N2C)s/c1=C\c1scc[n+]1Cc1ccccc1C(=O)O [JG-315]
IC50 (MCF-7; MCF7, MTT, 72-hour incubation): > 20 µM | IC50 (MDA-MB-231; MDA-MB-231, 72-hour incubation): > 20 µM | IC50 (MEF (C57BL/6); [1]): > 10 µM

Structure (SMILES): CCn1c(=O)/c(=C2\Sc3cc(Cl)ccc3N2C)s/c1=C\c1scc[n+]1Cc1ccccc1SC(F)(F)F [JG-253]
IC50 (MCF-7; [2]): 0.13 ± 0.01 µM | IC50 (MDA-MB-231; [3]): 0.16 ± 0.01 µM | IC50 (MEF (C57BL/6); [4]): 3.7 ± 0.2 µM

Structure (SMILES): CCn1c(=O)/c(=C2\Sc3ccc(C)cc3N2C)s/c1=C\c1scc[n+]1Cc1ccccc1Cl [JG-365]
IC50 (MCF-7; MCF7, MTT, 72-hour incubation): 0.11 ± 0.01 µM | IC50 (MDA-MB-231; MDA-MB-231, 72-hour incubation): 0.16 ± 0.02 µM | IC50 (MEF (C57BL/6); [1]): 0.42 ± 0.02 µM

Structure (SMILES): CCn1c(=O)/c(=C2\Sc3ccc(OC)cc3N2C)s/c1=C\c1scc[n+]1Cc1ccccc1OC(F)(F)F [JG-400]
IC50 (MCF-7; [2]): 0.16 ± 0.02 µM | IC50 (MDA-MB-231; [3]): 0.16 ± 0.01 µM | IC50 (MEF (C57BL/6); [4]): 2.2 ± 0.1 µM

Structure (SMILES): CCc1ccc2c(c1)S/C(=c1/s/c(=C\c3scc[n+]3Cc3cc(C)sc3C)n(CC)c1=O)N2C [JG-347]
IC50 (MCF-7; MCF7, MTT, 72-hour incubation): 0.095 ± 0.008 µM | IC50 (MDA-MB-231; MDA-MB-231, 72-hour incubation): 0.21 ± 0.01 µM | IC50 (MEF (C57BL/6); [1]): 0.6 ± 0.01 µM

Structure (SMILES): CCn1c(=O)/c(=C2\Sc3cc(F)ccc3N2C)s/c1=C\c1scc[n+]1Cc1ccccc1S(C)(=O)=O [JG-288]
IC50 (MCF-7; MCF7, MTT, 72-hour incubation): 1.97 ± 0.11 µM | IC50 (MDA-MB-231; MDA-MB-231, 72-hour incubation): 0.64 ± 0.08 µM | IC50 (MEF (C57BL/6); [1]): > 10 µM

Structure (SMILES): CCn1c(=O)/c(=C2\Sc3cc(Cl)ccc3N2C)s/c1=C\c1scc[n+]1Cc1ccccc1OC [JG-263]
IC50 (MCF-7; MCF7, 72 h): 0.4 ± 0.03 µM | IC50 (MDA-MB-231; [3]): 0.12 ± 0.01 µM | IC50 (MEF (C57BL/6); [4]): 1.5 ± 0.1 µM

The next lines start with results.

IC50 (MCF-7; MCF7, MTT, 72-hour incubation): 0.35 ± 0.03 µM | IC50 (MDA-MB-231; MDA-MB-231, 72-hour incubation): 0.19 ± 0.02 µM
Structure (SMILES): CCn1c(=O)/c(=C2\Sc3cc(C)ccc3N2C)s/c1=C\c1scc[n+]1CCc1ccccc1C [JG-392]
IC50 (MEF (C57BL/6); [1]): 1.2 ± 0.1 µM

IC50 (MCF-7; MCF7, MTT, 72-hour incubation): 0.2 ± 0.02 µM | IC50 (MDA-MB-231; MDA-MB-231, 72-hour incubation): 0.25 ± 0.03 µM
Structure (SMILES): CCn1c(=O)/c(=C2\Sc3cc(C)ccc3N2C)s/c1=C\c1scc[n+]1CCc1ccccc1Cl [JG-380]
IC50 (MEF (C57BL/6); [1]): 0.94 ± 0.03 µM

IC50 (MCF-7; MCF7, MTT, 72-hour incubation): 0.12 ± 0.01 µM | IC50 (MDA-MB-231; MDA-MB-231, 72-hour incubation): 0.16 ± 0.01 µM
Structure (SMILES): CCn1c(=O)/c(=C2\Sc3cc(OC)ccc3N2C)s/c1=C\c1scc[n+]1Cc1ccsc1C(=O)OC [JG-305]
IC50 (MEF (C57BL/6); [1]): 1 ± 0.1 µM

IC50 (MCF-7; MCF7, MTT, 72-hour incubation): 0.87 ± 0.11 µM | IC50 (MDA-MB-231; MDA-MB-231, 72-hour incubation): 0.3 ± 0.02 µM
Structure (SMILES): CCn1c(=O)/c(=C2\Sc3cc(F)ccc3N2C)s/c1=C\c1scc[n+]1Cc1occc1C(=O)OC [JG-266]
IC50 (MEF (C57BL/6); [1]): 2.7 ± 0.2 µM

IC50 (MCF-7; MCF7, MTT, 72-hour incubation): 1.08 ± 0.14 µM | IC50 (MDA-MB-231; MDA-MB-231, 72-hour incubation): 1.93 ± 0.27 µM
Structure (SMILES): CCn1c(=O)/c(=C2\Sc3cc(F)ccc3N2C)s/c1=C\c1scc[n+]1Cc1ccccc1CO [JG-330]
IC50 (MEF (C57BL/6); [1]): > 10 µM

IC50 (MCF-7; MCF7, MTT, 72-hour incubation): 0.12 ± 0.01 µM | IC50 (MDA-MB-231; MDA-MB-231, 72-hour incubation): 0.22 ± 0.02 µM
Structure (SMILES): CCn1c(=O)/c(=C2\Sc3ccc(C)cc3N2C)s/c1=C\c1scc[n+]1Cc1ccccc1Br [JG-367]
IC50 (MEF (C57BL/6); [1]): 0.54 ± 0.02 µM

IC50 (MCF-7; MCF7, MTT, 72-hour incubation): > 5 µM | IC50 (MDA-MB-231; MDA-MB-231, 72-hour incubation): 6.7 ± 0.5 µM
Structure (SMILES): CCn1c(=O)/c(=C2\Sc3cc(F)ccc3N2C)s/c1=C\c1scc[n+]1Cc1cnc(Cl)s1 [JG-260]
IC50 (MEF (C57BL/6); [1]): 8.2 ± 0.4 µM

IC50 (MCF-7; MCF7, MTT, 72-hour incubation): 1.3 ± 0.1 µM | IC50 (MDA-MB-231; MDA-MB-231, 72-hour incubation): 2.3 ± 0.1 µM
Structure (SMILES): CCn1c(=O)/c(=C2\Sc3cc(C#N)ccc3N2C)s/c1=C\c1scc[n+]1Cc1ccccc1 [JG-360]
IC50 (MEF (C57BL/6); [1]): 2.3 ± 0.1 µM

IC50 (MCF-7; MCF7, MTT, 72-hour incubation): 0.069 ± 0.005 µM | IC50 (MDA-MB-231; MDA-MB-231, 72-hour incubation): 0.06 ± 0.007 µM
Structure (SMILES): CCn1c(=O)/c(=C2\Sc3cc(C(C)C)ccc3N2C)s/c1=C\c1scc[n+]1Cc1ccccc1C(F)(F)F [JG-326]
IC50 (MEF (C57BL/6); [1]): 0.45 ± 0.04 µM

IC50 (MCF-7; MCF7, MTT, 72-hour incubation): 0.14 ± 0.01 µM | IC50 (MDA-MB-231; MDA-MB-231, 72-hour incubation): 0.11 ± 0.01 µM
Structure (SMILES): CCn1c(=O)/c(=C2\Sc3cc(C)ccc3N2C)s/c1=C\c1scc[n+]1Cc1ccsc1C(=O)OC [JG-248]
IC50 (MEF (C57BL/6); [1]): 1.2 ± 0.2 µM

IC50 (MCF-7; MCF7, MTT, 72-hour incubation): 0.2 ± 0.01 µM | IC50 (MDA-MB-231; MDA-MB-231, 72-hour incubation): 0.16 ± 0.02 µM
Structure (SMILES): CCn1c(=O)/c(=C2\Sc3cc(SC)ccc3N2C)s/c1=C\c1scc[n+]1Cc1ccsc1C(=O)OC [JG-313]
IC50 (MEF (C57BL/6); [1]): 1.4 ± 0.1 µM

From patent US10221171B2, “Oxathiazole thiazolium Hsp 70 inhibitors” (THE REGENTS OF THE UNIVERSITY OF CALIFORNIA, priority 2015, dated 2019)
